Measurements: a melting point compilation (Tetko et al.; mined from patent text by program, amines drawn as free bases though some values may be those of a salt)

melting point [°C]	SMILES
150 to 151	O=C(O)c1cc2ccc(OCCc3ccccc3)cc2oc1=O
193 to 195	OCC1OC(n2cnc3c(Nn4cccc4)ncnc32)C(O)C1O (configuration not stated)
302 to 304	Oc1cccc(-c2n[nH]c3c2Cc2ccccc2-3)c1
205 to 226	O=C(OC[C@@H]1CC(c2ccc(-c3ccc(N4C[C@H](Cn5ccnn5)OC4=O)cc3F)cn2)=NO1)c1cnccn1
145	Cc1cc([N+](=O)[O-])c(NC(C)C(=O)N(C)OS(C)(=O)=O)c([N+](=O)[O-])c1 (configuration not stated)
167 to 169	CCOc1nn(CCOc2ccccc2CC(=O)O)cc1C(=O)NCc1ccc(Cl)cc1Cl
171 to 174	NNc1nncc(-c2ccccc2F)n1
139 to 140	CCOC(=O)C1=C(C)NC(=O)N(C(=O)OC(C)C)C1c1cccc(Cl)c1Cl (configuration not stated)
171 to 174	O=C(C1CCN(S(=O)(=O)c2ccc(Br)cc2)CC1)N1CCN(c2ccncn2)CC1
188 to 190	NS(=O)(=O)c1ccc(-n2nc(C(F)(F)F)cc2-c2ccc(-c3cscn3)cc2)cc1
44.5 to 45.5	C=C(OCc1ccccc1)C(=O)OC
78 to 80	Cc1c(CC2CCc3c(c4ccccc4n3Cc3ccccc3)C2=O)ncn1C(c1ccccc1)(c1ccccc1)c1ccccc1 (configuration not stated)
274 to 276	O=c1[nH]c2cc(Cl)ccc2c(O)c1-c1ccc(Oc2ccccc2)cc1
91 to 94	O=c1cc(Br)ccn1C1CC1
185 to 187	CCS(=O)c1cc2c(cc1OC)CCn1c-2cc2c1C(=O)N(C(C)(C)C)CCCC2 (configuration not stated)
126 to 131	CCC(=O)C(Cc1cc(O)c(O)c([N+](=O)[O-])c1)C(=O)CC
206 to 208	CC(c1oc2ccccc2c(=O)c1-c1cccc(F)c1)n1nc(-c2ccc3cn[nH]c3c2)c2c(N)ncnc21 (configuration not stated)
93 to 95	Oc1c(C/C=C/c2ccc(OCc3ccccc3)c(OCc3ccccc3)c2)c(OCc2ccccc2)cc(OCc2ccccc2)c1Cc1ccccc1
122 to 123	CC[C@H](COC)n1cc(Br)nc(N2CCc3cc(OC)cc(Br)c32)c1=O
212 to 218	O=C1c2c(-c3ccccc3)noc2CCC1CCCN1CCC(n2c(=O)[nH]c3ccccc32)CC1 (configuration not stated)
264 to 266	COc1ccc(-n2nc(O)c3c(c2=O)Cc2ccc(Cl)cc2N3)c(C)c1
> 220	COc1cc2cc(CO)c(CO)c(-c3ccnc(C4C(=O)CCCC4=O)c3)c2cc1OC
92 to 94	CCCC(C)(COS(N)(=O)=O)COS(N)(=O)=O

melting point [°C]	SMILES
254 to 256	CON=Cc1nc2c(N)nc3cc(-c4cccc(CS(N)(=O)=O)c4)ccc3c2s1
244 to 246	C[C@@H](Nc1ncnc2[nH]c(-c3ccc(CN4CCN(C(=O)OC(C)(C)C)CC4)cc3)cc12)c1ccccc1
205 to 207	CC(CCCl)=C1SC(=S)N(CC(=O)O)C1=O
208 to 209	CCOC(=O)COc1ccc(C(=O)Nc2cccc(F)c2Sc2ccccc2-c2nnn[nH]2)cc1
200 to 202	CCn1c2ccccc2n2c(=O)c(C(=O)N3CCOCC3)cnc12
106 to 108	O=S(=O)(Nc1cc(Cl)sc1Cl)c1cc(-c2ncc(C(F)(F)F)cc2Cl)ccc1Cl
90 to 94	Cc1c(SCCN2CCc3ccccc3C2)ccnc1CSc1nc2ccccc2[nH]1
61 to 65	CC(C)C(NC(=O)Cn1cc(Cc2ccc(C(F)(F)F)cc2)cc(NC(=O)OCc2ccccc2)c1=O)C(=O)C(F)(F)F (configuration not stated)
275 to 279	CNn1cc(C(=O)O)c(=O)c2cc(F)c(Cl)cc21
105 to 122	O=C1c2ccccc2C(=O)N1CCCN1CCN(c2ccccc2)CC1
150 to 151	CCS(=O)(=O)c1ccc(Oc2ccc(Cl)c(Cl)c2)nc1C#N
136 to 138	COc1ccc2c(c1)OC(=O)C(C)(C#Cc1ccccc1)C2 (configuration not stated)
63 to 66	FC(F)(F)C(=Cc1ccccc1)c1ccc(Cl)cc1
80	CCCCc1nc2ncccc2[nH]1
139	CCOC(=O)c1cc2c(C)c(C(=O)OCC)sc2[nH]1
157 to 159	O=c1cc(-c2ccc(OCCO)cc2)oc2ncccc12
257 to 262	O=C(NCC12CC3CC(CC(C3)C1)C2)c1c(Cl)ccc2nc(N3CCC[C@@H](C(=O)O)C3)ccc12
75 to 77	CCCCCc1c(-c2ccc3c(Br)c(O)ccc3c2)oc2ccccc12
138	COc1nc(NCCc2ccccc2)c2cc(C)sc2n1
214 to 217	Cc1ccc(Cc2nc3cc(Cl)c(S(N)(=O)=O)cc3[nH]2)cc1
146 to 149	Cc1ccc(S(=O)(=O)OCCCCCCn2c3c(c4ccccc4c2=O)C(=O)c2ccccc2-3)cc1
129	O=C(O)C1=c2ccccc2=CC=C2CC=CC=C21
167 to 168	O=C(O)C1CCN(Cc2ccccc2)CC1

melting point [°C]	SMILES
298 to 303	CCCn1cc2c(C3C(=O)Nc4ccc(Br)cc43)nc(NCCCN3CCOCC3)nc2n1 (configuration not stated)
166 to 168	Cc1cc(C)nc(NC(=O)NS(=O)(=O)c2ccccc2C(=O)N(C)C)n1
205 to 215	COC(=O)CCc1cc2nc(Cl)ccc2n1S(=O)(=O)c1ccc2nc(N)sc2c1
180 to 182	CCCOc1ccc(S(=O)(=O)N2CCN(CC)CC2)cc1-c1nc2cc3ncn(Cc4ccccc4OC)c3cc2c(=O)[nH]1
200 to 202	Cc1ccc(C2CCN(C(=O)Nc3ccc4nc(CN5C(C)(C)CCCC5(C)C)ccc4c3)CC2)cc1
149 to 150	CCC(CC)(CC(=O)Nc1cccc(OCc2ccc3ccccc3n2)c1)C(=O)O
266 to 268	COc1cc2nc(N3CCN(C(=O)C=Cc4ccc(Br)cc4)CC3)nc(N)c2cc1OC
156 to 158	COC(=O)c1cccc(CN2CCc3cc(O)c(OC)cc3C2)c1
119	CC(C)c1cccc(S(=O)(=O)n2c(CCCC(=O)O)cc3nc(Cl)ccc32)c1
123 to 126	CC(=O)OC1CSC(Oc2cccc(-c3cccnc3)c2)C(OC(C)=O)C1OC(C)=O (configuration not stated)
104 to 106	O=C(CO)c1ccc(C2CCCCC2)cc1
187 to 189	COC(=O)c1cc(N)c(C#N)s1
230 to 232	Sc1ccc2c(c1)Sc1ccc(Cl)cc1N2
228	O=C(N[C@H]1CC[C@H](CCN2CCC(c3cccc4c3CCO4)CC2)CC1)c1ccc(N2CCOCC2)nc1
180 to 184	COc1ccc(-c2ocnc2-c2cc(OC)c(Br)c(OC)c2)cc1N
210	N#CC1=C(c2ccc(Cl)s2)Nc2n[nH]cc2C1c1cccc2nonc12 (configuration not stated)
> 250	CCn1nc(-c2nc(C(N)=O)c(N)nc2-c2ccccc2)ccc1=O
159 to 161	O=S1(=O)NCN(C2CC2)c2ccc(Cl)cc21
135 to 138	CCCc1nc(CO)c(C(=O)OCC)n1Cc1ccc(-c2ccccc2-c2nnnn2C(c2ccccc2)(c2ccccc2)c2ccccc2)cc1
158 to 161	COc1ccc([C@@H]2C=C[C@H](C(=O)O)n3c(=O)n(CCCl)c(=O)n32)cc1 (relative stereo)
278 to 282	O=C(O)c1cn(Cc2cnsn2)c2cc(F)c(F)cc2c1=O
79 to 81	CCS(=O)(=O)Nc1ccc(F)cc1Br
151 to 152	CCCCCCCNC(=O)Nc1ccc(CCc2cc(C(C)(C)C)c(O)c(C(C)(C)C)c2)cc1

melting point [°C]	SMILES
146 to 147	COc1cc2c(cc1O)CCN(Cc1ccc(OC)c(OC)c1)C2
144 to 145	Cc1ccn2c(=Nc3ccncc3)snc2c1
183 to 185	CN(C)C1=CC(=NS(=O)(=O)c2cccs2)c2ccccc2C1=O
200 to 202	O=C(O)CN1C(=O)c2cccc([N+](=O)[O-])c2C1=O
> 200	O=S1(=O)CCN(CC#Cc2cnc3c(c2)N(Cc2cc(Cl)ccc2Cl)CCN3)CC1
142	O=C(CC(=O)c1ccccc1Cl)Nc1ccccc1
123 to 124	CCOC(=O)n1c2ccccc2c(=O)n1Cc1ccc([N+](=O)[O-])cc1
101 to 102	CCOC1CN(Cc2ccccc2OC)Cc2cc(OC)c(O)cc21 (configuration not stated)
127 to 136	COC(=O)c1cc(N2CCC2)c(C(F)(F)F)cc1[N+](=O)[O-]
307 to 310	Cn1c2ccccc2c(=O)n2nc(C#N)cc12
193 to 194	CC(=O)NC(=Cc1ccccc1)C1=NC(=Cc2ccc(C)s2)C(=O)O1
168	Cc1oc(-c2ccccc2)nc1COc1cccc(COc2cc(Cl)ccc2C(=O)O)c1
224	N=C(NO)c1nc(-c2ccc(C(F)(F)F)cc2)cc(C(F)(F)F)n1
118	O=[N+]([O-])c1ccccc1-c1oc2ccc(CBr)cc2c1Br
222 to 224	CCNCC1CCN(c2c(F)cc3c(=O)c(C(=O)O)cn(NC)c3c2F)C1 (configuration not stated)
> 400	CSc1nc2ccc(C)cc2c2nn(-c3ccccc3)c(=O)n12
123 to 124	O=C(c1ccccc1)C1CCN(Sc2ccncc2)CC1
104 to 105	O=c1[nH]nc(COc2ccccc2)s1
240 to 244	COC(=O)C1=NC2=COc3cc(C)c(Cl)cc3N2C1C(=O)O (configuration not stated)
68	CC(C)Oc1ccc(F)cc1OCCN1C(=O)c2ccccc2C1=O
144 to 146	Cc1c(Cl)cccc1N=c1scc(-c2ccc(Cl)c(S(=O)(=O)N(C)C)c2)n1C
148	COc1cc(OC)cc(-c2nc[nH]c2-c2ccc(OC)c(O)c2N)c1
93 to 94	CCOC(=O)c1cccc(C)c1S(N)(=O)=O

SMILES	melting point [°C]
C=CC1(O)CCC2C3CCC4=CC(=O)CCC4C3CCC21CC (configuration not stated)	108 to 111
CCCC1NS(=O)(=O)N(CCN2CC=C(c3c[nH]c4cc(F)ccc34)CC2)c2ccccc21 (configuration not stated)	196 to 198
CN1C2CCC1CN(c1ccc(-c3cccs3)nn1)C2	156
CCc1c(C=O)c2ccc(C(N)=O)cc2n1Cc1ccccc1Cl	260 to 261
CC1CC(=O)NN=C1c1ccc(Nc2ccccc2)nc1 (configuration not stated)	202 to 204
